Test results: US20110142884A1, “Materials and Methods for Making Improved Micelle Compositions” (The Board of Trustees of the University of Illinois, priority 2002, published 2011)

Key:
man = conditions: infusion in man for 10 hours; cited from earlier work
[1] = tested on: mice with collagen-induced arthritis (CIA); assay: Collagen induced arthritis (CIA) in mice; assay type: in vivo; conditions: for hind paw thickness (PT) increase: tail vein
Protocol: SSM were prepared as described above in previous examples and by Onyuksel et al. (1999). VIP (1.0 nmol) was incubated with SSM for 2 h at 25° C. Size of VIP-SSM was determined by dynamic light-scattering. The effects of dilution on VIP-SSM were determined by size exclusion chromatography (SEC). Effects of VIP-SSM (1.0 nmol) and VIP in buffer (1.0 nmol and 5.0 nmol) were evaluated in mice with CIA treated on day 22 or 34 post-CIA induction. Clinical arthritis score (CAS) and hind paw thickness (PT) were recorded until day 45 post induction.
VIP, VIP-SSM (each, 0.5, 1.0 & 5.0 nmol), empty micelles, and buffer were injected into the tail vein on day 22 or day 34 post-CIA induction. Clinical arthritis score (CAS) and hind paw thickness (PT) were recorded until day 45 post-CIA induction. Systemic arterial pressure (SAP) was recorded by tail cuff in restrained mice. […] CAS reductions were similar to PT after treatment with α-helix VIP- and aqueous VIP-treated mice.

[2] = tested on: second order arterioles of the hamster cheek pouch microcirculation; assay: Hamster cheek pouch microcirculation, arteriolar diameter during suffusion; assay type: in vivo; conditions: native VIP alone, suffusion
Protocol: According to this example, the vasorelaxant effects of VIP in a SSM were determined according to the following method. Specifically, adult male golden Syrian hamsters were purchased from Sasco (Omaha, Nebr.). Adult male hamsters with spontaneous hypertension and their normotensive controls were purchased from the Canadian Hybrid Farms (Halls Harbour, NS, Canada). Hypertensive animals have been identified after cross-breeding of hamsters with hereditary cardiomyopathy and normal golden Syrian hamsters. These albino animals have previously been used in our laboratory (Rubinstein et al., Biochem. Biophys. Res. Commun. 183:1117-1123 (1992); Artwohl et al., FASEB J. 10:A629 (1996)). Animals were anesthetized with pentobarbital sodium (6 mg/100 g body weight, i.p.). A tracheotomy was performed to facilitate spontaneous breathing. A femoral vein was cannulated to inject supplemental anesthesia during the experiment (2-4 mg/100 g body weight/h). Body temperature was maintained constant (37-38° C.) and monitored via heating pad and a feed back controller throughout the experiment.
The bioactivity of the VIP in SSM by diffusing it in situ was determined by visualization of the microcirculation of the hamster cheek pouch. The microcirculation of the cheek pouch was visualized locally by a method previously developed in our laboratory (Suzuki et al., Life Sci. 57:1451-1457 (1995); Suzuki et al., Am. J. Physiol. 271:R393-R397 (1996); and Suzuki et al., Am. J. Physiol. 271:H282-H287 (1996)). Briefly, the left cheek pouch was spread over a small plastic baseplate, and an incision was made in the outer skin to expose the cheek pouch membrane. The connective avascular tissue layer was removed, and a plastic chamber was placed over the baseplate and secured in place by suturing the skin around the upper chamber. This forms a triple-layered complex: the baseplate, the exposed cheek pouch membrane, and the upper chamber. After these initial procedures, the hamster is transferred to a heated microscope stage. The chamber was connected to a reservoir containing warmed bicarbonate buffer (37-38° C.) that allowed continuous suffusion of the cheek pouch. The buffer was bubbled continuously with 95% N2-5% CO2 (pH 7.4). […]
The cheek pouch microcirculation was epi-illuminated with a 100-W mercury light source and viewed through a microscope (Nikon, Tokyo, Japan) at a magnification of ×40. […] The inner-wall diameter of second order arterioles ([…]), which modulated vascular resistance in the cheek pouch, (Raud, Acta Physiol. Scand. (Suppl.) 578:1-58 (1989); Suzuki et al., Life Sci. 57:1451-1457 (1995); Suzuki et al., Am. J. Physiol. 271:R393-R397 (1996)) was measured from the video display of the microscope image using a videomicrometer (VIA 100; Boeckeler Instruments, Tucson, Ariz.). […]

[3] = tested on: mice with collagen-induced arthritis (CIA); conditions: repeated intraperitoneal administration, 5.0 nmol, Delgado et al. 2001; cited from earlier work

vasoactive intestinal peptide [VIP]
increase of forearm blood flow (man): 270%
reduction of total peripheral resistance (man): 30%
hind paw thickness (PT) increase ([1]; 0.5 nmol dose): 85.63±6.20%
hind paw thickness (PT) increase ([1]; 1.0 nmol dose): 78.66±6.44%
progression of CIA (PT and CAS data) ([1]; 1.0 nmol, treated on day 22): 78.09%
progression of CIA (PT and CAS data) ([1]; 1.0 nmol, treated on day 34): 96.55%
hind paw thickness (PT) increase ([1]; 5.0 nmol dose): 46.69±6.92%
progression of CIA (PT and CAS data) ([1]; 5.0 nmol, treated on day 22): 56.37%
progression of CIA (PT and CAS data) ([1]; 5.0 nmol, treated on day 34): 69.71%
effects on the arteriolar diameter [2]: no significant effects
effect on CIA [3]: ameliorates CIA
